Source: patent US11419834B2, “Methods for treating diseases or infections caused by or associated with H. pylori using a halogenated salicylanilide” (Rhode Island Hospital, priority 2019, dated 2022)
Converted amounts (≈) assume the structure as drawn. “Also recorded” adds a separate entry of the source.

How the values were obtained:
H. Pylori 49503 = test: Broth microdilution assay, MIC; format: cell-based; conditions: Helicobacter pylori; strain H. Pylori 49503
H. pylori (strain 60190) = test: Effect of pH on MIC (broth microdilution); format: cell-based, Helicobacter pylori
Procedure: The pH was adjusted to acidic condition with 1 N HCl. The minimal bactericidal concentration (MBC) was determined by plating 5 μL of broth culture from the MIC assay onto Müller-Hinton agar (BD Biosciences) supplemented with 10% FBS. After 72 h, the lowest concentration at which colonies were not observed was reported as the MBC.

[1] = tested on: AGS cells invaded by H. pylori; test: Invasion, gentamicin protection assay; format: cell-based, Helicobacter pylori; conditions: 2×MIC, 0.5 μg/mL, 20 hours, AGS cell lines
Procedure: The AGS (Gastric adenocarcinoma cell lines) cell line was used to examine inhibition of adhesion and invasion of H. pylori (strain 60190) by niclosamide, as described by Schmitt et al. (Front Cell Infect Microbiol. 2013; 3:93). The AGS cells were grown in Dulbecco's Modified Eagle Medium (DMEM, ex. Gibco), supplemented with 10% fetal bovine serum (Gibco) and 1% penicillin/streptomycin (Gibco) and maintained at 37° C. in 5% C02. Then, 5×10^5 cells in antibiotic and serum-free DMEM were seeded in 6-well plates 24 hours prior to infection. H. pylori bacteria at a multiplicity of infection (MOI)=100 were added and allowed to adhere to the surface of the AGS cells. Planktonic bacteria were removed after 2 hours and DMEM with niclosamide (2×MIC) was then added to the wells containing the AGS. The mammalian cells were lysed by 0.1% saponin after 20 hours of incubation and the adhered bacteria were then serially diluted, plated in Brucella agar supplemented with 10% FBS, and incubated as described above. A control arm of DMSO and a comparator using amoxicillin at a concentration of 0.1 μg/mL (10×MIC) was also assessed. […]

[2] = tested on: AGS cells co-cultured with H. pylori (strain 60190); test: Light microscopy imaging for vacuolation; format: cell-based; conditions: sub-MIC (0.2 μg/mL), 24 h, MOI of 100
Procedure: H. Pylon bacteria secrete VacA toxin via a type V secretion system (Galmiche et al. Gut Microbes. 2010 November-December; 1(6):392-5. 44). This toxin binds to host gastric epithelial cells and its internalization leads to vacuolation, characterized by the accumulation of large vacuoles in gastric epithelial cells during the infection process. AGS cells were harvested and seeded into a 6 well plate at a concentration of 5×10^5 cells, 24 h before experimentation. H. Pylon bacteria (strain 60190) were harvested and washed with sterile PBS and co-cultured with AGS at a MOI of 100. After incubation for 24 h, the cells were washed, magnified under a microscope, and examined for vacuolation. […] After 3 days, the bacteria were washed and treated with TRIZOL (Invitrogen, Carlsbad, Calif., USA), and the RNA concentration was determined using a NanoVue Plus spectrophotometer (GE Healthcare, Fairfield, Conn., USA). PCR amplifications were performed, and the products were analysed by gel electrophoresis (1.0% agarose) containing SYBR® Safe (Invitrogen). Gel images were captured and analysed using the Quantity One System.

[3] = tested on: H. pylori vacA gene expression; test: RT-PCR study on VacA toxin expression; format: cell-based, Helicobacter pylori; conditions: sub-MIC level of 200 ng/mL, 3 days
H. pylori infection = test: Galleria mellonella in vivo infection model; conditions: 25 mg/kg, injected 2 hours after H. pylori inoculation
Procedure: Assays were performed as described by Giannouli et al. (BMC Microbiol. 2014 Aug. 27; 14:228), an alternative model host for the evaluation of antimicrobial agents against H. pylori infection. Twelve randomly selected G. mellonella larvae (Vanderhorst, Inc., St. Mary's, OH, USA) between 300-350 mg were used for each group in the experiment. H. pylori cells were washed with PBS and diluted to OD600 nm=0.3, before inoculation into G. mellonella larvae. A 10 μL inoculum was injected into the last left proleg using a 10 μL Hamilton syringe. After 2 hours, compounds were administered at into the last right proleg and the wax moths were incubate at 37° C. Niclosamide was administered at a concentration of 25 mg/kg. Clarithromycin administered at a concentration of 10 mg/kg was used as a comparator. Three control groups were included (1) injected with PBS only; (2) inoculated with H. pylori but treated with sham injections; and (3) no manipulation. G. mellonella survival was evaluated up to 120 hours. The surviving larvae were monitored every 24 hours and were considered dead if they were unresponsive to external stimuli (touch). Killing curves and differences in survival were analysed by the Kaplan-Meier method using GraphPad Prism version 6.04 (GraphPad Software, La Jolla, Calif., USA). Statistical analysis (Kruskal-Wallis test) was carried out using the same program.

[4] = tested on: H. pylori cells (strain 60190); test: Motility assay in soft agar; format: cell-based, Helicobacter pylori; conditions: for H. pylori motility (swarming) versus concentration: niclosamide from 0.10 to 0.20 μg/mL (75-200 ng/mL in soft agar)

O=C(Nc1ccc([N+](=O)[O-])cc1Cl)c1cc(Cl)ccc1O [Niclosamide, niclosamide]
MIC (H. Pylori 49503): 0.25 µg/mL (≈ 0.764 µM) | MIC (H. pylori (strain 60190); Helicobacter pylori, acidic pH, tested between pH 7.0 to 5.2, read-out: MIC in low pH): 0.25 µg/mL (≈ 0.764 µM) | change of MIC at acidic pH compared to pH 7.0 (H. pylori (strain 60190); pH 7.0 to 5.2): remained the same | reduction of intracellular CFU [1]: 3 log10 CFU | effect on vacuolation of AGS cells [2]: prevented vacuolation | effect on VacA expression compared to housekeeping gene rpoB [3]: down-regulated vacA gene; also recorded: downregulates VacA expression | survival of wax-moth larvae up to 120 hours (H. pylori infection): About 60% | H. pylori motility (swarming) versus concentration [4]: impeded H. Pylon swarming movement in a dose-dependent manner | H. pylori motility (swarming) versus concentration ([4]; listed as niclosamide): decreased in a dose-dependent manner | H. pylori motility ([4]; sub-MIC (0.2 μg/mL)): abated
